# Literature values in patent US20060210645A1, “Pharmaceutically acceptable carrier for ophthalmic compositions” (priority 2005, published 2006).
# Assays:
# [1] = relative to methyltestosterone
# [2] = relative to methyltestosterone; remark: listed apart in the source
structure (smiles),measurement,setting,value
"C[C@]12COC(=O)C[C@@H]1CC[C@@H]1[C@@H]2CC[C@@]2(C)[C@H]1CC[C@]2(C)O [oxandrolone, 17 alpha-methyl-17β-hydroxy-2-oxa-5 alpha-androstan-3-one]","anabolic activity, % of that of methyltestosterone",[1],322%
same,"androgenic activity, % of that of methyltestosterone",[2],24%
